Laboratory results: patent US20230121086A1, “RORgT INHIBITOR, PREPARATION METHOD THEREOF AND USE THEREOF” (SUNSHINE LAKE PHARMA CO., LTD., priority 2020, published 2023)

Molecular target: T1, RORγt (Homo sapiens, UniProt P51449)
T1 construct: […]
T1 sequence (P51449 269-508 limits assumed): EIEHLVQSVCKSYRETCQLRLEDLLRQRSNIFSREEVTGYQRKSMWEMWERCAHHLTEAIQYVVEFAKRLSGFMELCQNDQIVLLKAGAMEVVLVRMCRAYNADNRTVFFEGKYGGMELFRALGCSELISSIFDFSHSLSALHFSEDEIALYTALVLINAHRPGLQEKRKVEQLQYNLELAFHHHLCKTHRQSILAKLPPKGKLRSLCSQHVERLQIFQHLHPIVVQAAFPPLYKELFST
Test: Fluorescence resonance energy transfer (FRET) test, inhibitory activity of RORγt
Type: biochemical
Details: FRET, B-RORγt LBD / Biotin-SRC1; read-out: IC50

| SMILES | IC50 [nM] |
| --- | --- |
| CCS(=O)(=O)c1ccc([C@@H](CC#N)NC(=O)c2ccc(N3CC(Oc4ccc(C(F)(F)F)cc4)C[C@H]3COC(F)F)cc2)cc1 (stereo in doubt) [Example 48, N-((R)-2-cyano-1-(4-(ethylsulfonyl)phenyl)ethyl)-4-((2S,4S)-2-((difluoromethoxy)methyl)-4-(4-(trifluoromethyl)phenoxy)pyrrolidin-1-yl)benzamide] | 8 |
| CCS(=O)(=O)c1ccc([C@H](CC#N)NC(=O)c2ccc(N3CC(Oc4ccc(C(F)(F)F)cc4)C[C@H]3COC(F)F)cc2)nc1 (stereo in doubt) [Example 49, N-((S)-2-cyano-1-(5-(ethylsulfonyl)pyridin-2-yl)ethyl)-4-((2S,4S)-2-((difluoromethoxy)methyl)-4-(4-(trifluoromethyl)phenoxy)pyrrolidin-1-yl)benzamide] | 28 |
| CCS(=O)(=O)c1ccc([C@H](CC#N)NC(=O)c2ccc(N3CC(Oc4ccc(C(F)(F)F)cc4)C[C@H]3COC(F)F)cc2F)cc1 (stereo in doubt) [Example 59, N-((S)-2-cyano-1-(4-(ethylsulfonyl)phenyl)ethyl)-4-((2S,4S)-2-((difluoromethoxy)methyl)-4-(4-(trifluoromethyl)phenoxy)pyrrolidin-1-yl)-2-fluorobenzamide] | 47 |
| CCS(=O)(=O)c1ccc([C@H](CC#N)NC(=O)c2ccc(N3CC(Oc4ccc(C(F)(F)F)cc4)C[C@H]3COC(F)F)c(OC)c2)cc1 (stereo in doubt) [Example 60, N-((S)-2-cyano-1-(4-(ethylsulfonyl)phenyl)ethyl)-4-((2S,4S)-2-((difluoromethoxy)methyl)-4-(4-(trifluoromethyl)phenoxy)pyrrolidin-1-yl)-3-methoxybenzamide] | 81 |
| CCS(=O)(=O)c1ccc([C@H](CC#N)NC(=O)c2ccc(N3CC(Oc4ccc(C(F)(F)F)cc4)C[C@H]3COC(F)(F)F)cc2)cc1 (stereo in doubt) [Example 70, N-((S)-2-cyano-1-(4-(ethylsulfonyl)phenyl)ethyl)-4-((2S,4S)-2-((trifluoromethoxy)methyl)-4-(4-(trifluoromethyl)phenoxy)pyrrolidin-1-yl)benzamide] | 26 |
| CCS(=O)(=O)c1ccc([C@H](CC#N)NC(=O)c2cnc(N3CC(Oc4ccc(C(F)(F)F)cc4)C[C@H]3COC(F)(F)F)nc2)cc1 (stereo in doubt) [Example 72, N-((S)-2-cyano-1-(4-(ethylsulfonyl)phenyl)ethyl)-2-((2S,4S)-2-((trifluoromethoxy)methyl)-4-(4-(trifluoromethyl)phenoxy)pyrrolidin-1-yl)pyrimidine-5-carboxamide] | 34 |
| CCS(=O)(=O)c1ccc([C@H](CC#N)NC(=O)c2ccc(N3CCC(Oc4ccc(C(F)(F)F)cc4)C3)c(F)c2)cc1 (stereo in doubt) [Example 83, N-((S)-2-cyano-1-(4-(ethylsulfonyl)phenyl)ethyl)-3-fluoro-4-((S)-3-(4-(trifluoromethyl)phenoxy)pyrrolidin-1-yl)benzamide] | 91 |
| CCS(=O)(=O)c1ccc([C@H](CC#N)NC(=O)c2ccc(N3C[C@@H](Oc4ccc(N)cc4)C[C@H]3COC(F)F)cc2)cc1 [Example 7, 4-((2S,4S)-4-(4-aminophenoxy)-2-((difluoromethoxy)methyl)pyrrolidin-1-yl)-N-((S)-2-cyano-1-(4-(ethylsulfonyl)phenyl)ethyl)benzamide] | 57.5 |
| CCS(=O)(=O)c1ccc([C@H](CC#N)NC(=O)c2ccc(N3C[C@@H](Oc4ccc(OC)nc4)C[C@H]3COC(F)F)cc2)cc1 [Example 10, N-((S)-2-cyano-1-(4-(ethylsulfonyl)phenyl)ethyl)-4-((2S,4S)-2-((difluoromethoxy)methyl)-4-((6-methoxypyridine-3-yl)oxy)pyrrolidin-1-yl)benzamide] | 19 |
| CCS(=O)(=O)c1ccc([C@@H](CC#N)NC(=O)c2ccc(N3C[C@@H](Oc4ccc(OC(F)(F)F)cn4)C[C@H]3COC(F)F)cc2)cc1 [Example 17, N-((R)-2-cyano-1-(4-(ethylsulfonyl)phenyl)ethyl)-4-((2S,4S)-2-((difluoromethoxy)methyl)-4-((5-(trifluoromethoxy)pyridin-2-yl)oxy)pyrrolidin-1-yl)benzamide] | 14.9 |

Continued by falling IC50, values first:

| IC50 [nM] | SMILES |
| --- | --- |
| 78.7 | CCS(=O)(=O)c1ccc([C@H](CC#N)NC(=O)c2ccc(N3C[C@@H](Oc4ccc(C)nc4)C[C@H]3COC(F)F)cc2)cc1 [Example 15, N-((S)-2-cyano-1-(4-(ethylsulfonyl)phenyl)ethyl)-4-((2S,4S)-2-((difluoromethoxy)methyl)-4-((6-methylpyridin-3-yl)oxy)pyrrolidin-1-yl)benzamide] |
| 70 | CCS(=O)(=O)c1ccc([C@H](CC#N)NC(=O)c2ccc(N3CC(Oc4ccc(C(F)(F)F)cc4)C[C@H]3COC(F)F)cc2)cc1 (single isomer, unassigned) [Example 74] |
| 44 | CCS(=O)(=O)c1ccc(C(CC#N)NC(=O)c2ccc(N3CC(c4ccc(C(F)(F)F)cc4)C[C@H]3COC(F)F)cc2)cc1 (stereo in doubt) [Example 81, N—((S)-2-cyano-1-(4-(ethylsulfonyl)phenyl)ethyl)-4-((2S,4S)-2-((difluoromethoxy)methyl)-4-(4-(trifluoromethyl)phenyl)pyrrolidin-1-yl)benzamide] |
| 41 | CCS(=O)(=O)c1ccc([C@H](CC#N)NC(=O)c2ccc(N3CC(Oc4ccc(C(F)(F)F)nc4)C[C@H]3COC(F)F)cc2)cc1 (stereo in doubt) [Example 57, N-((S)-2-cyano-1-(4-(ethylsulfonyl)phenyl)ethyl)-4-((2S,4S)-2-((difluoromethoxy)methyl)-4-((6-(trifluoromethyl)pyridine-3-yl)oxy)pyrrolidin-1-yl)benzamide] |
| 36.1 | CCS(=O)(=O)c1ccc([C@H](CC#N)NC(=O)c2ccc(N3C[C@@H](Oc4ccc(-n5ccnc5)cc4)C[C@H]3COC(F)F)cc2)cc1 [Example 5, 4-((2S,4S)-4-(4-(1H-imidazol-1-yl)phenoxy)-2-((difluoromethoxy)methyl)pyrrolidin-1-yl)-N-((S)-2-cyano-1-(4-(ethylsulfonyl)phenyl)ethyl)benzamide] |
| 31.4 | CCS(=O)(=O)c1ccc([C@H](CC#N)NC(=O)c2ccc(N3C[C@@H](Oc4ccc(OC(F)F)cc4)C[C@H]3COC(F)F)cc2)nc1 [Example 13, N-((S)-2-cyano-1-(5-(ethylsulfonyl)pyridin-2-yl)ethyl)-4-((2S,4S)-2-((difluoromethoxy)methyl)-4-(4-(difluoromethoxy)phenoxy)pyrrolidin-1-yl)benzamide] |
| 27 | CCS(=O)(=O)c1ccc([C@H](CC#N)NC(=O)c2ccc(N3C[C@@H](Oc4ccc(OC(F)(F)F)nc4)C[C@H]3COC(F)F)cc2)cc1 [Example 11, N-((S)-2-cyano-1-(4-(ethylsulfonyl)phenyl)ethyl)-4-((2S,4S)-2-((difluoromethoxy)methyl)-4-((6-(trifluoromethoxy)pyridin-3-yl)oxy)pyrrolidin-1-yl)benzamide] |
| 25.9 | CCS(=O)(=O)c1ccc([C@H](CC#N)NC(=O)c2ccc(N3C[C@@H](Oc4ccc(OC(F)(F)F)cn4)C[C@H]3COC(F)F)nc2)cc1 [Example 18] |
| 25.8 | CCS(=O)(=O)c1ccc([C@H](CC#N)NC(=O)c2ccc(N3C[C@@H](Oc4ccc(OC(F)F)nc4)C[C@H]3COC(F)F)cc2)cc1 [Example 9, N-((S)-2-cyano-1-(4-(ethylsulfonyl)phenyl)ethyl)-4-((2S,4S)-2-((difluoromethoxy)methyl)-4-((6-(difluoromethoxy)pyridin-3-yl)oxy)pyrrolidin-1-yl)benzamide] |
| 21.5 | CCS(=O)(=O)c1ccc([C@@H](CC#N)NC(=O)c2ccc(N3C[C@@H](Oc4ccc(OC(F)F)cc4)C[C@H]3COC(F)F)cc2)cc1 [Example 12, N-((R)-2-cyano-1-(4-(ethylsulfonyl)phenyl)ethyl)-4-((2S,4S)-2-((difluoromethoxy)methyl)-4-(4-(difluoromethoxy)phenoxy)pyrrolidin-1-yl)benzamide] |
| 18.8 | CCS(=O)(=O)c1ccc([C@H](CC#N)NC(=O)c2ccc(N3C[C@@H](Oc4ccc(OC(F)(F)F)cn4)C[C@H]3COC(F)F)cc2)cc1 [Example 8, N-((S)-2-cyano-1-(4-(ethylsulfonyl)phenyl)ethyl)-4-((2S,4S)-2-((difluoromethoxy)methyl)-4-((5-(trifluoromethoxy)pyridin-2-yl)oxy)pyrrolidin-1-yl)benzamide] |
| 16 | CCS(=O)(=O)c1ccc([C@H](CC#N)NC(=O)c2cnc(N3CC(Oc4ccc(C(F)(F)F)cc4)C[C@H]3COC(F)F)c(F)c2)cc1 (stereo in doubt) [Example 50, N-((S)-2-cyano-1-(4-(ethylsulfonyl)phenyl)ethyl)-6-((2S,4S)-2-((difluoromethoxy)methyl)-4-(4-(trifluoromethyl)phenoxy)pyrrolidin-1-yl)-5-fluoronicotinamide] |
| 14 | CCS(=O)(=O)c1ccc([C@H](CCC#N)NC(=O)c2ccc(N3CC(Oc4ccc(C(F)(F)F)cc4)C[C@H]3COC(F)F)cc2)cc1 (stereo in doubt) [Example 51, N-((S)-3-cyano-1-(4-(ethylsulfonyl)phenyl)propyl)-4-((2S,4S)-2-((difluoromethoxy)methyl)-4-(4-(trifluoromethyl)phenoxy)pyrrolidin-1-yl)benzamide] |
| 7 | CCS(=O)(=O)c1ccc([C@H](CC#N)NC(=O)c2ccc(N3CC(Oc4ccc(OC)cc4)C[C@H]3COC(F)F)cc2)cc1 (stereo in doubt) [Example 63, N-((S)-2-cyano-1-(4-(ethylsulfonyl)phenyl)ethyl)-4-((2S,4S)-2-((difluoromethoxy)methyl)-4-(4-methoxyphenoxy)pyrrolidin-1-yl)benzamide] |
